Data as given in patent publication US9133115B2 (ACHILLION PHARMACEUTICALS, INC., priority 2008, dated 2015).

Each compound was assayed on HCV replicon (assay: HCV replicon replication assay (NPT ELISA) in Huh-7 replicon-containing cells). Details: Hepatitis C virus, 72 h; HCV replicon in Huh-7 cells, three days incubation; read-out: EC50.
Assay type: cell-based
Summary of the method: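 Huh-7 cells carrying a bicistronic HCV replicon (HCV-IRES-neo, EMCV-IRES-driven NS3–NS5B, 3′-NTR) were seeded at 6000-7500 cells/well, grown 24 h to 60-70% confluence, then treated with graded compound concentrations. Replication was read as NPT level by capture ELISA (rabbit anti-NPTII, Eu-N1 secondary); interferon alpha served as positive control.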

SMILES	EC50 [nM]
C=C[C@@H]1C[C@]1(NC(=O)[C@@H]1C[C@@H](Oc2cc(-c3ccccc3)nc3cc(OC)ccc23)CN1C(=O)[C@@H](CC(=O)N1CCCCC1)C(C)(C)C)C(=O)N(C1CC1)S(N)(=O)=O [Compound 107, (2S,4R)-1-((S)-2-tert-butyl-4-oxo-4-(piperidin-1-yl)butanoyl)-N-((1R,2S)-1-(N-cyclopropyl-sulfamoyl-carbamoyl)-2-vinylcyclopropyl)-4-(7-methoxy-2-phenylquinolin-4-yloxy)pyrrolidine-2-carboxamide]	< 1000
C=C[C@@H]1C[C@]1(NC(=O)[C@@H]1C[C@@H](Oc2cc(-c3ccccc3)nc3cc(OC)ccc23)CN1C(=O)[C@@H](CC(=O)N1CCCCC1)CC(C)(C)C)C(=O)NS(=O)(=O)C1CC1 [Compound 104, (2S,4R)-N-((1R,2S)-1-(cyclopropyl-sulfonylcarbamoyl)-2-vinylcyclopropyl)-1-((R)-4,4-dimethyl-2-(2-oxo-2-(piperidin-1-yl)ethyl)pentanoyl)-4-(7-methoxy-2-phenylquinolin-4-yloxy)pyrrolidine-2-carboxamide]	< 1000
C=CC1C[C@]1(NC(=O)[C@@H]1C[C@@H](Oc2cc(-c3ccccc3)nc3cc(OC)ccc23)CN1C(=O)[C@@H](CC(=O)N1CCCC(C(F)(F)F)C1)C(C)(C)C)C(=O)NS(=O)(=O)C1CC1 (stereo partly drawn) [Compound 162, (2S,4R)-1-((2S)-2-tert-butyl-4-oxo-4-(3-(trifluoromethyl)pi-peridin-1-yl)butanoyl)-N-((1R,2S)-1-(cyclopropylsulfonyl-carbamoyl)-2-vinylcyclopropyl)-4-(7-methoxy-2-phenylquinolin-4-yloxy)pyrrolidine-2-carboxamide]	< 1000
C=C[C@@H]1C[C@]1(NC(=O)[C@@H]1C[C@@H](Oc2cc(-c3ccccc3)nc3cc(OC)ccc23)CN1C(=O)[C@@H](CC(=O)N1CCCCC1)C(C)(C)C)C(=O)NS(=O)(=O)C1(C)CC1 [Compound 106, (2S,4R)-1-((S)-2-tert-butyl-4-oxo-4-(piperidin-1-yl)butanoyl)-4-(7-methoxy-2-phenylquinolin-4-yloxy)-N-((1R,2S)-1-(1-methylcyclopropyl-sulfonylcarbamoyl)-2-vinylcyclo-propyl)pyrrolidine-2-carboxamide]	< 1000
C=C[C@@H]1C[C@]1(NC(=O)[C@@H]1C[C@@H](Oc2cc(-c3ccccn3)nc3c4c(ccc23)OCC4)CN1C(=O)[C@@H](CC(=O)N1CCOCC1)C(C)(C)C)C(=O)NS(=O)(=O)C1CC1 [Compound 153, (2S,4R)-1-((S)-2-tert-butyl-4-morpholino-4-oxobutanoyl)-N-((1R,2S)-1-(cyclo-propylsulfonyl-carbamoyl)-2-vinylcyclopropyl)-4-(2-(pyridin-2-yl)-8,9-dihydrofuro[2,3-h]quinolin-4-yloxy)pyrrolidine-2-carboxamide]	< 1000
C=C[C@@H]1C[C@]1(NC(=O)[C@@H]1C[C@@H](n2nnc(-c3ccccc3)c2-c2ccccc2)CN1C(=O)[C@@H](CC(=O)N1CCCCC1)C(C)(C)C)C(=O)NS(=O)(=O)C1CC1 [Compound 128, (2S,4R)-1-((S)-2-tert-butyl-4-oxo-4-(piperidin-1-yl)butanoyl)-N-((1R,2S)-1-(cyclo-propylsulfonyl-carbamoyl)-2-vinylcyclopropyl)-4-(4,5-diphenyl-1H-1,2,3-triazol-1-yl)pyrrolidine-2-carboxamide]	1000 to 10000
C=C[C@@H]1C[C@]1(NC(=O)[C@@H]1C[C@@H](Oc2cc(-c3ccccc3)nc3cc(OC)ccc23)CN1C(=O)[C@@H](CC(=O)N1CCOCC1)C(C)(C)C)C(=O)NS(=O)(=O)C1CC1 [Compound 48, (2S,4R)-1-((S)-2-tert-butyl-4-morpholino-4-oxobutanoyl)-N-((1R,2S)-1-(cyclo-propylsulfonyl-carbamoyl)-2-vinylcyclopropyl)-4-(7-methoxy-2-phenylquinolin-4-yloxy)pyrrolidine-2-carboxamide]	< 1000
C=C[C@@H]1C[C@]1(NC(=O)[C@@H]1C[C@@H](Oc2cc(-c3ccccc3)nc3cc(OC)ccc23)CN1C(=O)[C@@H](CC(=O)N1CCCC1C(F)(F)F)C(C)(C)C)C(=O)NS(=O)(=O)C1CC1 (stereo partly drawn) [Compound 176, (2S,4R)-1-((2S)-2-tert-butyl-4-oxo-4-(2-(trifluoro-methyl)pyrrolidin-1-yl)butanoyl)-N-((1R,2S)-1-(cyclopropylsulfonyl-carbamoyl)-2-vinylcyclopropyl)-4-(7-methoxy-2-phenylquinolin-4-yloxy)pyrrolidine-2-carboxamide]	< 1000
C=C[C@@H]1C[C@]1(NC(=O)[C@@H]1C[C@@H](Oc2cc(-c3csc(N(C)C)n3)nc3cc(OC)ccc23)CN1C(=O)[C@@H](CC(=O)N1CCCCC1)C(C)(C)C)C(=O)NS(=O)(=O)C1CC1 [Compound 137, (2S,4R)-1-((S)-2-tert-butyl-4-oxo-4-(piperidin-1-yl)butanoyl)-N-((1R,2S)-1-(cyclo-propylsulfonyl-carbamoyl)-2-vinylcyclopropyl)-4-(2-(2-(dimethyl-amino)thiazol-4-yl)-7-methoxyquinolin-4-yloxy)pyrrolidine-2-carboxamide]	< 1000
C=C[C@@H]1C[C@]1(NC(=O)[C@@H]1C[C@@H](Oc2nccc3c(Cl)c(OC)ccc23)CN1C(=O)[C@@H](CC(=O)N1CCCC(F)(F)C1)C(C)(C)C)C(=O)NS(=O)(=O)C1CC1 [Compound 247, (2S,4R)-1-((S)-2-tert-butyl-4-(3,3-difluoropiperidin-1-yl)-4-oxobutanoyl)-4-(5-chloro-6-methoxyisoquinolin-1-yloxy)-N-((2S)-1-(cyclopropyl-sulfonylcarbamoyl)-2-vinylcyclo-propyl)pyrrolidine-2-carboxamide]	< 1000
C=C[C@@H]1C[C@]1(NC(=O)[C@@H]1C[C@@H](n2nc(-c3ccccc3)c(-c3ccccc3)n2)CN1C(=O)[C@@H](CC(=O)N1CCCCC1)C(C)(C)C)C(=O)NS(=O)(=O)C1CC1 [Compound 139, (2S,4R)-1-((S)-2-tert-butyl-4-oxo-4-(piperidin-1-yl)butanoyl)-N-((1R,2S)-1-(cyclopropyl-sulfonylcarbamoyl)-2-vinylcyclopropyl)-4-(4,5-diphenyl-2H-1,2,3-triazol-2-yl)pyrrolidine-2-carboxamide]	< 1000
C=C[C@@H]1C[C@]1(NC(=O)[C@@H]1C[C@@H](Oc2cc(-c3ccccc3)nc3cc(OC)ccc23)CN1C(=O)[C@@H](CC(=O)N1CCC2(CC1)OCCO2)C(C)(C)C)C(=O)NS(=O)(=O)C1CC1 [Compound 75, (2S,4R)-1-((2S)-2-tert-butyl-4-oxo-4-(1,4-dioxa-8-azaspiro[4.5]decan-8-yl)butanoyl)-N-((1R,2S)-1-(cyclopropylsulfonyl-carbamoyl)-2-vinylcyclopropyl)-4-(7-methoxy-2-phenylquinolin-4-yloxy)pyrrolidine-2-carboxamide]	< 1000
C=C[C@@H]1C[C@]1(NC(=O)[C@H]1C[C@@H](Oc2cc(-c3ccccc3)nc3cc(OC)ccc23)CN1C(=O)[C@@H](CC(=O)N1CCCCC1)C(C)(C)C)C(=O)NS(=O)(=O)C1CC1 [Compound 213, (2R,4R)-1-((S)-2-tert-butyl-4-oxo-4-(piperidin-1-yl)butanoyl)-N-((1R)-1-(cyclo-propylsulfonyl-carbamoyl)-2-vinyl-cyclopropyl)-4-(7-methoxy-2-phenylquinolin-4-yloxy)pyrrolidine-2-carboxamide]	< 1000
C=C[C@@H]1C[C@]1(NC(=O)[C@@H]1C[C@@H](NC(=O)n2c3ccccc3c3ccccc32)CN1C(=O)[C@@H](CC(=O)N1CCC(C(F)(F)F)CC1)C(C)(C)C)C(=O)NS(=O)(=O)C1CC1 [Compound 190, N-((3R,5S)-1-((S)-2-tert-butyl-4-oxo-4-(4-(trifluoromethyl)piper-idin-1-yl)butanoyl)-5-((1R,2S)-1-(cyclopropylsulfonyl-carbamoyl)-2-vinylcyclopropyl-carbamoyl)pyrrolidin-3-yl)-9H-carbazole-9-carboxamide]	< 1000
C=C[C@@H]1C[C@]1(NC(=O)[C@@H]1C[C@@H](Oc2cc(-c3ccccc3)nc3cc(OC)ccc23)CN1C(=O)[C@@H](CC(=O)N1CCC(CNC(=O)OC(C)(C)C)CC1)C(C)(C)C)C(=O)NS(=O)(=O)C1CC1 [Compound 76, tert-butyl (1-((S)-3-((2S,4R)-2-((1R,2S)-1-(cyclopropylsulfonyl-carbamoyl)-2-vinylcyclopropyl-carbamoyl)-4-(7-methoxy-2-phenylquinolin-4-yloxy)pyrrolidine-1-carbonyl)-4,4-dimethylpentano-yl)piperidin-4-yl)methylcarbamate]	< 1000
C=C[C@@H]1C[C@]1(NC(=O)[C@@H]1C[C@@H](Oc2cc(-c3ccccn3)nc3c(Cl)c(OC)ccc23)CN1C(=O)[C@@H](CC(=O)N1CCCCC1)C(C)(C)C)C(=O)NS(=O)(=O)C1CC1 [Compound 179, (2S,4R)-1-((S)-2-tert-butyl-4-oxo-4-(piperidin-1-yl)butanoyl)-4-(8-chloro-7-methoxy-2-(pyridin-2-yl)quinolin-4-yloxy)-N-((1R,2S)-1-(cyclopropyl-sulfonylcarbamoyl)-2-vinylcyclo-propyl)pyrrolidine-2-carboxamide]	< 1000
COc1ccc2c(O[C@@H]3C[C@@H](C(=O)N[C@H](C(=O)NS(=O)(=O)C4CC4)C(C)C)N(C(=O)[C@@H](CC(=O)N4CCCCC4)C(C)(C)C)C3)cc(-c3ccccc3)nc2c1 [Compound 110, (2S,4R)-1-((S)-2-tert-butyl-4-oxo-4-(piperidin-1-yl)butanoyl)-N-((S)-1-(cyclopropane-sulfonamido)-3-methyl-1-oxobutan-2-yl)-4-(7-methoxy-2-phenylquinolin-4-yloxy)pyrrolidine-2-carboxamide]	1000 to 10000
C=C[C@@H]1C[C@]1(NC(=O)[C@@H]1C[C@@H](OC(=O)N(c2ccccc2)c2ccccc2)CN1C(=O)[C@@H](CC(=O)N1CCCCC1)C(C)(C)C)C(=O)NS(=O)(=O)C1CC1 [Compound 129, (3R,5S)-1-((S)-2-tert-butyl-4-oxo-4-(piperidin-1-yl)butanoyl)-5-((1R,2S)-1-(cyclopropylsulfon-ylcarbamoyl)-2-vinylcyclopropyl-carbamoyl)pyr-rolidin-3-yl diphenylcarbamate]	1000 to 10000
